# Values quoted from earlier work in patent US20090004306A1, “Composition for treatment of diabetes and maintaining healthy blood glucose levels” (priority 2007, published 2009).
# Key:
# [1] = Kim study
compound,measurement,setting,value
O=C/C=C/c1ccccc1 [cinnamaledhyde],hypoglycemic properties / blood glucose level,[1],exhibit hypoglycemic properties
chromium picolinate,insulin sensitivity and glycemic control,"ample intakes, individuals and diabetics",promote insulin sensitivity in many individuals and improve glycemic control in some diabetics
[Cr] [chromium],glucose levels and related variables,"people with glucose intolerance and type 1, type 2, gestational, and steroid-induced diabetes",improve glucose levels and related variables
